Tests used:
[1] = system: NOD mice; assay: Gleevec prevention studies in pre-diabetic NOD mice (diabetes incidence by blood glucose); assay type: in vivo, mouse
Protocol: (§1) Further studies were carried out to determine if Gleevec could be discontinued and maintain its efficacy. New onset mice were treated as above for only 3 weeks after onset and examined for disease recurrence (FIG. 1B). […] of mice (7/8) went into remission during the 3 weeks of therapy. For the majority of mice, remission was short lived as 5/8 mice (FIG. 1B, solid circles) became hyperglycemic within 1-2 weeks after cessation of drug therapy. However, 3/8 mice (FIG. 1B, open circles) remained in remission more than 6 weeks after the last dose of Gleevec. […] Ten week old NOD mice were treated daily with Gleevec ([…]) or peanut oil and followed for disease incidence. None of the Gleevec-treated and 50% of the peanut oil-treated mice were diabetic at 18 weeks of age.
Pre-diabetic NOD mice were treated with Gleevec for 7 weeks starting at 12 weeks of age. The Gleevec was emulsified in peanut oil and given by gavage (100 mg/kg) daily. Control animals were treated with peanut oil alone. Mice were tested for diabetes based on blood glucose. Mice with two consecutive glucose readings of greater than 250 mg/dl were considered diabetic.

[2] = system: NOD mice; assay: Treatment of new onset diabetic NOD mice with Gleevec (remission of diabetes, blood glucose); assay type: in vivo, mouse
Protocol: NOD mice were treated by gavage (oral) daily (M-F) with 50 mg/kg of commercially-available Gleevec suspended in peanut oil. Treatment was initiated at the time of disease onset (blood sugars above 250 mg/dl) and continued for the duration of the experiment.
as §1
Diabetic NOD mice (250-350 mg/dL) were treated with Gleevec for a short course (3 weeks) or longer courses (8-10 weeks) daily 3 times per week (3×/wk); and blood glucose assessed as described in Example 2. […] The majority of the daily, 8-10 week-treated group remained normal glycemic for >2 months after ending therapy. Peanut oil treatment had no effect in reversing diabetes.
In another dosing regimen, NOD mice were treated with Gleevec (100 mg/kg) by daily oral gavage Monday through Friday for 2 weeks, followed by daily Gleevec (100 mg/kg) via oral gavage three times per week for 6 weeks. Four of 5 mice went into disease remission.

[3] = system: NOD mice injected with cyclophosphamide (CY); assay: Cyclophosphamide model: diabetes incidence in CY-injected NOD mice; assay type: in vivo; conditions: 14.5 week-old NOD mice, CY 300 mg/kg i.p., Gleevec 1.5 mg/mouse/day oral for 7 weeks; FIG. 3
Protocol: 14.5 week-old NOD mice were injected intraperitoneally (i.p.) with cyclophosphamide (CY) (300 mg/kg) in conjunction with daily oral Gleevec therapy or control peanut oil. Gleevec treatment (1.5 mg/mouse/day) lasted 7 weeks. Mice were tested for diabetes based on blood glucose. Mice with two consecutive glucose readings of greater than 250 mg/dl were considered diabetic.

[4] = 100 mg/kg oral gavage daily Monday-Friday for 2 weeks, then 100 mg/kg three times per week for 6 weeks
[5] = new onset mice, 50 mg/kg oral daily for only 3 weeks after onset, FIG. 1B

With `CS(=O)(=O)O.Cc1ccc(NC(=O)c2ccc(CN3CCN(C)CC3)cc2)cc1Nc1nccc(-c2cccnc2)n1` [Gleevec] the “percent of mice in which diabetes was prevented” value ([1]; pre-diabetic NOD mice, 100 mg/kg gavage daily for 7 weeks starting at 12 weeks of age, diabetic = two consecutive glucose readings >250 mg/dl, FIG. 2) was 90%, the “mice diabetic at 18 weeks of age” value ([1]; ten week old NOD mice treated daily (50 mg/ml as printed), preliminary experiments) was “None” and the “mice going into remission” value ([2]; 50 mg/kg oral gavage daily (M-F) in peanut oil, started at disease onset (blood sugars above 250 mg/dl), continued for duration of experiment, FIG. 1A) was “All of the treated mice went into remission”. The “relapse during the course of the study” value ([2]; 50 mg/kg oral gavage daily (M-F), continuous treatment from onset, FIG. 1A) was “none relapsed”, the “mice that maintained normoglycemia for the duration of the experiment (>30 weeks after onset)” value [2, 4] was “Three of the 5” and the “mice that went into disease remission (number of total)” value [2, 4] was “Four of 5”. The “mice that remained in remission more than 6 weeks after the last dose (number/total)” value ([2]; 3-week treatment, FIG. 1B open circles) was 3/8, the “mice that became hyperglycemic within 1-2 weeks after cessation of drug therapy (number/total)” value ([2]; 3-week treatment, FIG. 1B solid circles) was 5/8 and the “blood glucose levels maintained in treated mice” value ([2]; NOD mice treated with Gleevec after onset) was “approximately 200 mg/dl”. The “time the majority of the group remained normal glycemic after ending therapy” value ([2]; daily, 8-10 week-treated group) was greater than 2 months, the reversal of diabetes ([2]; diabetic NOD mice (250-350 mg/dL), all treatments: 3 weeks or 8-10 weeks, daily or 3x/wk) was “effective in reversing diabetes in the majority of mice” and the “mice that went into remission during the 3 weeks of therapy (number/total)” value [2, 5] was 7/8. For the same compound, the “percent of mice that went into remission during the 3 weeks of therapy” value [2, 5] was “Greater than 90%”, the “long term maintenance (>20 week) of normoglycemia” value ([2]; short course 3 weeks versus long course 8-10 weeks) was “less evident in short term 3 week treatment) than long term 8-10 week treated mice” and the “incidence of diabetes versus peanut oil-treated CY-treated control” value [3] was “significantly reduced”.

Reference: patent US20100210596A1, “USE OF AMINOPYRIMIDINE COMPOUNDS IN THE TREATMENT OF IMMUNE DISORDERS” (priority 2006, published 2010)
